Measurements reported in patent US8377883B2, “Peptide for anti-angiogenesis and use thereof” (Beijing Institute for Cancer Research, priority 2006, dated 2013).

Experiments:
[1] = test system: mouse liver cancer H22 cells; test: Tumor suppression in liver cancer H22 cells tumor-bearing mouse model (Example 4); assay type: in vivo, mice of Kunming strain; conditions: 50 m/1000 PBS/injection, angulus oculi medialis vein daily, 7 times; vs PBS control, P<0.05
Description: (§1) To confirm the biological effects of FpAT on the growth of mice deriving tumor in mice in vivo, a tumor suppression experiment was carried out in this example using liver cancer H22 cells tumor-bearing mouse model of mice of Kunming strain and osteosarcoma S180 cells tumor-bearing mouse model of mice of Kunming strain. Forty 5-week old mice of Kunming strain purchased from Animal Center Of Chinese Academy Of Medical Sciences were inoculated subcutaneously in forelimb with mouse liver cancer H22 cells (National Institute for the Control of Pharmaceutical and Biological Products) (5×10^6/100 μl/mouse) or osteosarcoma S180 cells (National Institute for the Control of Pharmaceutical and Biological Products) (5×10^6/100 μl/mouse). On the next day after inoculation, each kind of inoculated cells were divided into 2 groups randomly with 10 mice per group. FpAT ([…]) or vehicle (the solvent for peptide) control (PBS:100 μl/injection) were injected in angulus oculi medialis vein daily, 7 times in total. The mice were sacrificed by dislocating the neck on the next day after administration was stopped, and the tumors were taken and weighed for a statistical analysis.

osteosarcoma S180 cells = test: Tumor suppression in osteosarcoma S180 cells tumor-bearing mouse model (Example 4); assay type: in vivo, mice of Kunming strain; conditions: 50 m/1000 PBS/injection, angulus oculi medialis vein daily, 7 times; vs PBS control, P<0.05
Description: as §1

[2] = test system: human lung cancer PG cells; test: Tumor suppression in human lung cancer PG tumor-bearing nude mice model; assay type: in vivo, Balb/c nude mice; conditions: 50 μg/100 μl PBS/injection, angulus oculi medialis vein once every other day, 10 times; vs vehicle, P<0.05
Description: In order to confirm the biological effects of FpAT on the growth of human deriving tumors in nude mice in vivo, a tumor suppression experiment was carried out in this example using human gastric carcinoma BGC-823 cells tumor-bearing nude mice model, human lung cancer PG cells tumor-bearing nude mice model and human colon cancer HT-29 cells tumor-bearing nude mice model.
Twenty 5-week old Balb/c nude mice purchased from Animal Center Of Chinese Academy Of Medical Sciences were inoculated subcutaneously in forelimb with human gastric carcinoma BGC-823 cells (National Institute for the Control of Pharmaceutical and Biological Products) (5×10^6/100 μl/mouse), human lung cancer PG cells (National Institute for the Control of Pharmaceutical and Biological Products) (5×10^6/100 μl/mouse) or human colon cancer HT-29 cells (ATCC® Number: HTB-38™) (5×10^6/100 μl/mouse). On the next day after inoculation, each kind of inoculated cells were divided into 2 groups randomly with 5 mice per group. […] Observation was continued for another 20 days after administration was stopped, and during this period the long and short diameters of the tumors were measured with a vernier caliper once every three days, and the volumes of the tumor mass were calculated according to formula ½×long diameter×short diameter^2. […]

tumor microvessel = test: Tumor microvessel density (MVD) by factor VIII immunohistochemistry; assay type: in vivo, mice
Description: In order to confirm that the suppression of FpAT on tumor growth in mice in vivo is achieved by suppressing angiogenesis, an analysis of microvessel density in tumor was performed in this example by using tumor mass in Examples 4 and 5.
The tumor masses were fixed with formaldehyde, and then cut into serial section of 3 μm. The paraffin sections were dewaxed to water, and incubated in 3% H2O2 at room temperature for 10 minutes, to which rabbit anti-human factor VIII polyclonal antibody (DAKO company) was added dropwise, and after left at 4° C. overnight; 1:200 sheep anti-rabbit IgG labeled with biotin (Beijing ZhongShan bioengineering Company) was added dropwise, and incubated at 37° C. for 30 minutes. […] Then a visual field with most interstitial blood vessels of cancer nest was chosen, and under a ×400 magnitude field, 3 visual fields were counted by 3 observers individually according to double blind method; wherein individual cells and cell clusters stained brown were observed and taken as one blood vessel, whereas blood vessel cavities and erythrocytes therein were not counted, and blood vessel or vessel cavities in muscular layer larger than 50 μm were excluded. The average value of numbers counted by 3 individuals was taken as MVD (microvessel density) result of this case for a statistics analysis, see Table 4.

[3] = test system: endothelial cells of mouse aorta; test: Growth of primary endothelial cells from mouse aorta segments on Matrigel; assay type: cell-based, Balb/c mice; conditions: 10, 25, 100 μg/ml PBS; 48 hours, 72 hours
Description: The Balb/c mice were sacrificed by dislocating the neck and aorta were detached and washed off the blood cells therein with PBS. The cleaned aorta was cut into aorta segments in length of 1 mm, which were planted vertically in 24-well cell culture plate coated with Matrigel gel (BD company); and 10% FCS/RPMI1640 was added, and the plates were placed and cultured in CO2 incubator (37° C., 5% CO2). The vehicle (PBS) and FpAT (10 μg/ml PBS, 25 μg/ml PBS, 100 μg/ml PBS) were added separately, with 3 parallel wells per group, and the cultivation was performed for 48 hours, 72 hours. Then the growth of mouse aorta endothelial cell was observed under microscope.

[4] = test system: pig aorta endothelial cells (PAEC); test: MTT proliferation of pig aorta endothelial cells; assay type: cell-based; conditions: similar experiment to HUVEC MTT
[5] = test system: human umbilical vein endothelial cells (HUVECs); test: Microfilament skeleton of HUVECs by confocal microscope; assay type: cell-based; conditions: 10, 25, 100 μg/ml; 48, 72, 96 hours
Description: Human umbilical cord samples (obtained from Beijing Obstetrics & Gynecology Hospital) was digested with 0.1% collagenase I (available from GIBCO BRL company), followed by a centrifugation (1000 rpm, 10 minutes) to collect human umbilical vein endothelial cells (HUVECs). After suspended in 20% FCS/RPMI1640, the cells were transferred into plastic bottles for culture in CO2 incubator (37° C., 5% CO2). Twelve hours later, unattached cells were discarded by changing medium, and then the remaining cells were cultured conventionally with the medium changed every 3 days. The cultured HUVECs were digested with 0.04% trypsin-EDTA, and inoculated into 24-well plate at 2×10^4 cells/well; and the vehicle (PBS) and FpAT (10 μg/ml, 25 μg/ml, 100 μg/ml) were added separately, with 3 parallel wells per group. […] After washing twice with PBS, Hoechst was added to stain nucleus. After washed once with PBS, the slide was mounted with mounting solution, and stored at 4° C. in the dark. The change of cytoskeleton was observed employing a confocal microscope.

Substance: H2N-Asp-Ser-Gly-Glu-Gly-Asp-Phe-Leu-Ala-Glu-Gly-Gly-Gly-Val-Arg-COOH (H-DSGEGDFLAEGGGVR-OH; listed as Homo sapiens) [FpAT, fibrinopeptide A truncated, carboxyl terminal 15 amino acids of fibrinopeptide A]
- growth of mouse liver cancer H22 cells in vivo (tumor mass) [1]: could suppressed the growths
- growth of osteosarcoma S180 cells in vivo (tumor mass) (osteosarcoma S180 cells): could suppressed the growths
- growth of human lung cancer PG cells in nude mice (tumor mass) [2]: could suppress the growths
- MVD (tumor microvessel; tumor mass of Examples 4 and 5, 20 visual fields observed totally, PBS group 6.4): 2.6 Number of micro vessel/visual field
- growth of microvessel in tumor tissue (tumor microvessel; vs PBS control group, P<0.05): suppressed significantly the growth of microvessel
- growth of vascular endothelial cell of mouse aorta [3]: can suppress specifically the growth
- proliferation, migration and ability to form tubular structure of vascular endothelial cell of mouse aorta [3]: suppress notably
- suppression of PAEC proliferation [4]: came to a same conclusion
- microfilament disassembly in HUVECs [5]: can induce the microfilament disassembly
